Reference: patent US20120065187A1 (ALCON RESEARCH, LTD, priority 2008, published 2012)
Structures can show the parent of a compound that is named as a salt. Where two headings read alike, the source gives them in different places.

How the values were obtained:
human H1 = target: T1, human H1 (Homo sapiens, UniProt P35367); test: In vitro histamine receptor cell-based assay (aequorin bioluminescence), H1 antagonism; settings: CHO-K1 cells expressing human H1 and aequorin; histamine at EC80; read-out: H1 Antagonist EC50
T1 construct: host or cells: CHO-K1
T1 sequence (P35367 whole entry): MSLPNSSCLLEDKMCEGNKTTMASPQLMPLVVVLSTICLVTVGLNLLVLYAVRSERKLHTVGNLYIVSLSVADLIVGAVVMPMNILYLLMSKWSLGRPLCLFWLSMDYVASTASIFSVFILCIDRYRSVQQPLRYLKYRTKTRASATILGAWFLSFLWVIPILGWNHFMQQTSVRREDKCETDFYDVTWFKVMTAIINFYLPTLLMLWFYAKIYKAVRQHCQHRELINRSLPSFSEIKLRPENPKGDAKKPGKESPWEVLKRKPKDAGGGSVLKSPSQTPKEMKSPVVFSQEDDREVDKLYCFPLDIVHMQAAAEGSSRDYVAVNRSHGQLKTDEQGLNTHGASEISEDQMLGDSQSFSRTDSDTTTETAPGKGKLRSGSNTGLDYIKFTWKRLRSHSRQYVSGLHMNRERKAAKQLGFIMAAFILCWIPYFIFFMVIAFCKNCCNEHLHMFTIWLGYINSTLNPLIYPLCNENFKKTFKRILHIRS
Method in brief: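 Antagonism read as drop in aequorin luminescence after histamine challenge at a predetermined EC80, following 15 min compound pretreatment at room temperature. Cells: CHO-K1 carrying human H1, or H4 with Gα16; signal as AUC or amplitude, normalised to 10 μM diphenhydramine (H1) or JNJ7777120 (H4).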

human H4 = target: T2, human H4 (Homo sapiens, UniProt Q9H3N8); test: In vitro histamine receptor cell-based assay (aequorin bioluminescence), H4 antagonism
T2 construct: host or cells: CHO-K1
Method in brief: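 Antagonism read as loss of aequorin luminescence after histamine (EC80 final) addition, following 15 min room-temperature compound pretreatment of coelenterazine-h-loaded (5 μM) CHO-K1 cells co-expressing human H4 and Gα16. Efficacy given relative to 10 μM JNJ7777120; agonism excluded in separate no-histamine runs.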

[1] = CHO-K1 cells expressing human H4, aequorin and Gα16, histamine at EC80, read-out: H4 Antagonist EC50

| Structure (SMILES) | EC50 (human H1) | EC50 (human H4; [1]) | EC50 (human H4) |
| --- | --- | --- | --- |
| CN1CCN(c2nc3cc(Cl)ccc3n3nnnc23)CC1 [Example 17, 7-Chloro-4-(4-methylpiperazin-1-yl)tetrazolo[1,5-a]quinoxaline] | > 10 µM | < 10 µM | – |
| CN1CC=C(c2nc3ccc(Cl)cc3n3cnnc23)CC1 [Example 2, 8-Chloro-4-(1-methyl-1,2,3,6-tetrahydropyridin-4-yl)-[1,2,4]triazolo[4,3-a]quinoxaline] | > 10 µM | < 10 µM | – |
| Cc1ccc2nc(N3CCNCC3)c3nnnn3c2c1 [Example 18, 8-Methyl-4-(piperazin-1-yl)tetrazolo[1,5-a]quinoxaline] | > 10 µM | < 10 µM | – |
| CC(C)c1nc2c3cc(Cl)ccc3nc(N3CCN(C)CC3)n2n1 [Example 116, 9-Chloro-2-isopropyl-5-(4-methylpiperazin-1-yl)-[1,2,4]triazolo[1,5-c]quinazoline] | > 10 µM | > 10 µM | – |
| FC(F)(F)c1cc2nc(N3CCNCC3)c3nncn3c2cc1Cl [Example 47, 8-Chloro-4-(piperazin-1-yl)-7-(trifluoromethyl)-[1,2,4]triazolo[4,3-a]quinoxaline] | > 10 µM | < 10 µM | – |
| CN1CCN(c2nc3ccc(C(F)(F)F)cc3c3cn(C)nc23)CC1 [Example 155, 2-Methyl-4-(4-methylpiperazinyl)-8-(trifluoromethyl)pyrazolo[3,4-c]quinoline] | > 10 µM | < 10 µM | – |
| Clc1ccc2nc(N3CCNCC3)c3nccn3c2c1 [Example 8, 8-Chloro-4-(piperazin-1-yl)imidazo[1,2-a]quinoxaline] | > 10 µM | < 10 µM | – |
| FC(F)(F)Oc1ccc2nc(N3CCNCC3)c3nncn3c2c1 [Example 51, 4-(piperazin-1-yl)-8-(trifluoromethoxy)-[1,2,4]triazolo[4,3-a]quinoxaline] | > 10 µM | < 10 µM | – |
| CN1CCN(c2nc3ccc(Cl)cc3c3ccsc23)CC1 [Example 149, 8-Chloro-4-(4-methylpiperazin-1-yl)thieno[2,3-c]quinoline] | < 10 µM | < 10 µM | – |
| C=Cc1ccc2nc(N3CCNCC3)c3nncn3c2c1 [Example 89, 4-(piperazin-1-yl)-8-vinyl-[1,2,4]triazolo[4,3-a]quinoxaline] | > 10 µM | < 10 µM | – |
| CCc1nc2c3cc(Cl)ccc3nc(N3CCN(C)CC3)n2n1 [Example 114, 9-Chloro-2-ethyl-5-(4-methylpiperazin-1-yl)-[1,2,4]triazolo[1,5-c]quinazoline] | > 10 µM | < 10 µM | – |
| CN1CCN(c2nc3cc(C(F)(F)F)ccc3n3nnnc23)CC1 [Example 28, 4-(4-methylpiperazin-1-yl)-7-(trifluoromethyl)tetrazolo[1,5-a]quinoxaline] | > 10 µM | < 10 µM | – |
| CN1CCC(c2nc3ccc(Cl)cc3n3cnnc23)CC1 [Example 4, 8-Chloro-4-(1-methylpiperidin-4-yl)-[1,2,4]triazolo[4,3-a]quinoxaline] | > 10 µM | < 10 µM | – |
| CC(C)c1nc2c3cc(Cl)ccc3nc(N3CCNCC3)n2n1 [Example 117, 9-Chloro-2-isopropyl-5-(piperazin-1-yl)-[1,2,4]triazolo[1,5-c]quinazoline] | > 10 µM | > 10 µM | – |
| FC(F)(F)c1ccc2c(c1)nc(N1CCNCC1)c1nccn12 [Example 183, 4-(piperazin-1-yl)-7-(trifluoromethyl)imidazo[1,2-a]quinoxaline hydrochloride] | > 10 µM | – | > 10 µM |
| Clc1ccc2nc(N3CC4CNCC4C3)c3nncn3c2c1 (centres unmarked) [Example 69, 8-chloro-4-(hexahydropyrrolo[3,4-c]pyrrol-2(1H)-yl)-[1,2,4]triazolo[4,3-a]quinoxaline] | > 10 µM | > 10 µM | – |
| Cc1nc2c3cc(F)c(C(F)(F)F)cc3nc(N3CCNCC3)n2n1 [Example 130, 9-fluoro-2-methyl-5-(piperazin-1-yl)-8-(trifluoromethyl)-[1,2,4]triazolo[1,5-c]quinazoline hydrochloride] | > 10 µM | < 10 µM | – |
| Cc1nc2c(N3CCNCC3)nc3ccc(Cl)cc3n2n1 [Example 164, 8-chloro-2-methyl-4-(piperazin-1-yl)-[1,2,4]triazolo[1,5-a]quinoxaline] | > 10 µM | < 10 µM | – |
| Cc1nc2c3cc(F)c(F)cc3nc(N3CCN(C)CC3)n2n1 [Example 97, 8,9-Difluoro-2-methyl-5-(4-methylpiperazin-1-yl)-[1,2,4]triazolo[1,5-c]quinazoline] | > 10 µM | < 10 µM | – |
| Cc1nc2c3cc(Cl)c(Cl)cc3nc(N3CCNCC3)n2n1 [Example 94, 8,9-Dichloro-2-methyl-5-(piperazin-1-yl)-[1,2,4]triazolo[1,5-c]quinazoline] | > 10 µM | < 10 µM | – |
| CCCc1ccc2nc(N3CCN(C)CC3)c3nncn3c2c1 [Example 175, 4-(4-methylpiperazin-1-yl)-8-propyl-[1,2,4]triazolo[4,3-a]quinoxaline] | > 10 µM | < 10 µM | – |

Now from value to compound, other results behind:

| EC50 (human H1) | EC50 (human H4; [1]) | Structure (SMILES) | EC50 (human H4) |
| --- | --- | --- | --- |
| > 10 µM | < 10 µM | Fc1cc2nc(N3CCNCC3)c3nncn3c2cc1Br [Example 184, 8-bromo-7-fluoro-4-(piperazin-1-yl)-[1,2,4]triazolo[4,3-a]quinoxaline] | – |
| > 10 µM | < 10 µM | CN1CCN(c2nc3ccc(C(F)(F)F)cc3c3conc23)CC1 [Example 218, 4-(4-methylpiperazin-1-yl)-8-(trifluoromethyl)isoxazolo[3,4-c]quinoline] | – |
| < 10 µM | < 10 µM | Fc1cc2nc(N3CCNCC3)c3nccn3c2cc1Cl [Example 180, 8-chloro-7-fluoro-4-(piperazin-1-yl)imidazo[1,2-a]quinoxaline] | – |
| > 10 µM | < 10 µM | CN1CCN(c2nc3cc(F)c(F)cc3n3ccnc23)CC1 [Example 181, 7,8-difluoro-4-(4-methylpiperazin-1-yl)imidazo[1,2-a]quinoxaline] | – |
| > 10 µM | < 10 µM | CN1CCN(c2nc3cc(F)c(Br)cc3n3cnnc23)CC1 [Example 185, 8-bromo-7-fluoro-4-(4-methylpiperazin-1-yl)-[1,2,4]triazolo[4,3-a]quinoxaline] | – |
| > 10 µM | < 10 µM | Brc1ccc2c(c1)nc(N1CCNCC1)c1nnnn12 [Example 194, 7-bromo-4-(piperazin-1-yl)tetrazolo[1,5-a]quinoxaline hydrochloride] | – |
| > 10 µM | < 10 µM | Fc1cc2nc(N3CCNCC3)c3nnnn3c2cc1Cl [Example 188, 8-chloro-7-fluoro-4-(piperazin-1-yl)tetrazolo[1,5-a]quinoxaline] | – |
| > 10 µM | < 10 µM | CN1CCN(c2nc3cc(F)c(F)cc3n3nnnc23)CC1 [Example 190, 7,8-difluoro-4-(4-methylpiperazin-1-yl)tetrazolo[1,5-a]quinoxaline] | – |
| > 10 µM | < 10 µM | Cc1nc2c(N3CCNCC3)nc3cc(F)c(Cl)cc3c2o1 [Example 217, 8-chloro-7-fluoro-2-methyl-4-(piperazin-1-yl)oxazolo[4,5-c]quinoline] | – |
| > 10 µM | < 10 µM | CN1CCN(c2nc3cc(F)c(Cl)cc3n3ccnc23)CC1 [Example 179] | – |
